Values of other authors, collected in patent US20150289553A1, “METHOD OF DEVELOPING SAFE AND EFFECTIVE DIETARY SUPPLEMENTS” (priority 2014, published 2015).
Where two headings read alike, the source gives them in different places.

Tests used:
[1] = for Clinically Effective Dosage Range: daily dosage, adults (18+ yrs.); for Dataset 2 Clinical Efficacy: Table 5, multivitamin/mineral for adult U.S. women
[2] = high intake of supplemental calcium; men
[3] = calcium supplements; almost 24,000 participants
[4] = 600 IU every other day; 39,876 women
[5] = 400 IU/d; 19 trials, 135,967 subjects
[6] = 400 IU every other day for 8 years; 14,641 men
[7] = not given; remark: listed apart in the source
[8] = adults (18+ yrs.), derived from published literature and regulatory files
[9] = Table 5, multivitamin/mineral for adult U.S. women

| Molecule | Clinically Effective Dosage Range [1] | Dataset 2 Clinical Efficacy [1] | Upper Limits, CRN-listed Nutrients (adults (18+ yrs.)) | Dataset 1 Upper Limits [9] [mg] | further results |
| --- | --- | --- | --- | --- | --- |
| CC(C)=CCC/C(C)=C/C=C/C(C)=C/C=C/C(C)=C/C=C/C=C(C)/C=C/C=C(C)/C=C/C=C(\C)CCC=C(C)C [Lycopene] | 0.2 to 30 mg |  |  |  | Upper Limits, Other Nutrients [8]: 11.3 mg |
| [Se] [Selenium] | 0.0055 to 0.2 mg | 5.5-200^ mcg |  |  | Dataset 1 Upper Limits (in vivo): 0.2 mg; Upper Limits, CRN-listed Nutrients (in vivo): 0.2 mg |
| [Cu] [Copper] | 0.09 to 8 mg | 0.09 to 8 mg |  |  | Dataset 1 Upper Limits (in vivo): 9 mg; Upper Limits, CRN-listed Nutrients (in vivo): 9 mg |
| [K+] [Potassium] | 470-5,000 mg |  | 1,500 mg |  |  |
| CC1=C[C@H](O)CC(C)(C)[C@H]1/C=C/C(C)=C/C=C/C(C)=C/C=C/C=C(C)/C=C/C=C(C)/C=C/C1=C(C)C[C@@H](O)CC1(C)C [Lutein] | 0.1 to 20 mg | 0.1 to 20 mg |  |  | Dataset 1 Upper Limits (in vivo): 17.6 mg; Upper Limits, Other Nutrients (in vivo): 17.6 mg |
| [Ca+2] [Calcium] | 130-2,000 mg | 130 to 2000 mg | 1,500 mg | 1500 | risk of cardiovascular disease death [2]: associated with an excess risk of cardiovascular disease death; risk of myocardial infarction [3]: raised the risk of myocardial infarction |
| [Mn+2] [Manganese] | 0.23 to 30 mg | 0.23 to 30 mg | 10 mg | 10 |  |
| [Fe] [Iron] | 1.8 to 120 mg | 125 to 2000 mg |  |  | Dataset 1 Upper Limits (in vivo): 60 mg; Upper Limits, CRN-listed Nutrients (in vivo): 60 mg |
| Cc1c(C)c2c(c(C)c1O)CC[C@@](C)(CCC[C@H](C)CCC[C@H](C)CCCC(C)C)O2 [Vitamin E, RRR-alpha-tocopherol] | 1.5-1,342 mg | 1.5 to 1342 mg |  | 1000 | effects on cardiovascular health or cancer prevention [4]: no effects; mortality [5]: increased mortality; risk for cardiovascular disease [6]: did not reduce the risk; UL (Upper Limit) (healthy US adults, Embodiment 1): 1,000 mg |
| [O]=[Mg] [magnesium oxide] |  |  |  |  | bioavailability ([7]; versus most organic magnesium salts or chelates (citrate, malate, glycinate)): lower bioavailability |
| [Cr] [Chromium] | 3.5-1,000 mcg | 0.0035 to 1 mg | 1,000 mcg | 1 |  |
| C[N+](C)(C)CCO [Choline] |  |  |  |  | Upper Limits, Other Nutrients [8]: 3,500 mg |
| [P] [Phosphorus] | 125-2,000 mg |  | 1,500 mg |  |  |
| O=C1O[C@H]([C@@H](O)CO)C(O)=C1O [Vitamin C, ascorbic acid] | 9-10,000 mg | 9 to 10000 mg |  |  |  |
| CC1=C(/C=C/C(C)=C/C=C/C(C)=C/C=C/C=C(C)/C=C/C=C(C)/C=C/C2=C(C)C(=O)[C@@H](O)CC2(C)C)C(C)(C)C[C@H](O)C1=O [Astaxanthin] | 4 to 100 mg |  |  |  | Upper Limits, Other Nutrients (in vivo): 5.3 mg |
| CC1=C(/C=C/C(C)=C/C=C/C(C)=C/C=C/C=C(C)/C=C/C=C(C)/C=C/C2=C(C)CCCC2(C)C)C(C)(C)CCC1 [Beta-Carotene] | 1 to 180 mg |  |  |  | Upper Limits, CRN-listed Nutrients (adults (18+ yrs.), non-smokers): 25 mg |
| CC1=C(/C=C/C(C)=C/C=C/C(C)=C/CO)C(C)(C)CCC1 [Vitamin A (retinol and its esters), retinol] | 90-3,300 mcg | 0.09 to 3.3 mg |  |  | Dataset 1 Upper Limits (in vivo): 1.5 mg; Upper Limits, CRN-listed Nutrients (in vivo): 1,500 mcg |

| Molecule | Clinically Effective Dosage Range [1] | Dataset 2 Clinical Efficacy [1] | Upper Limits, CRN-listed Nutrients (adults (18+ yrs.)) | Dataset 1 Upper Limits [9] [mg] | further results |
| --- | --- | --- | --- | --- | --- |
| CC/C=C\C/C=C\C/C=C\CCCCCCCC(=O)O [Alpha-Linolenic Acid] |  |  |  |  | Upper Limits, Other Nutrients (in vivo): 25000 mg |
| NC(=O)c1cccnc1 [Nicotinamide] | 1.6-3,000 mg | 1.6 to 3000 mg | 1,500 mg | 1500 |  |
| Cc1ncc(CO)c(CO)c1O [Vitamin B6 (pyridoxine), pyridoxine] | 0.17 to 200 mg | 0.17 to 200 mg | 100 mg | 100 |  |
| C=C1CC[C@H](O)C/C1=C/C=C1\CCC[C@]2(C)[C@@H]([C@H](C)CCCC(C)C)CC[C@@H]12 [Vitamin D, cholecalciferol] | 0.002 to 0.25 mg | 0.002 to 0.25 mg |  |  |  |
| Nc1nc2ncc(CNc3ccc(C(=O)N[C@@H](CCC(=O)O)C(=O)O)cc3)nc2c(=O)[nH]1 [Folic Acid] | 40-5,000 mcg | 0.04 to 5 mg |  |  | bioavailability ([7]; folic acid in supplements versus folic acid in foods (folates)): higher bioavailability |
| cyanocobalamin [Vitamin B12] | 0.24-2,500 mcg | 0.24-2500^ mcg |  |  | Dataset 1 Upper Limits (in vivo): 3 mg; Upper Limits, CRN-listed Nutrients (in vivo): 3,000 mcg |
| CC1=CCCC(C)(C)C1/C=C/C(C)=C/C=C/C(C)=C/C=C/C=C(C)/C=C/C=C(C)/C=C/C1=C(C)CCCC1(C)C (stereo not drawn) [Alpha-Carotene] | 0.01 to 5 mg |  |  |  | Upper Limits, Other Nutrients [8]: 8.3 mg |
| [O-2].[Zn+2] [Zinc] | 1.1 to 80 mg | 1.1 to 80 mg | 30 mg | 30 |  |
| O=C(O)CCCC[C@@H]1SC[C@@H]2NC(=O)N[C@@H]21 [Biotin] | 3-15,000 mcg | 0.003 to 15 mg | 2,500 mcg | 2.5 |  |
| Cc1ncc(C[n+]2csc(CCO)c2C)c(N)n1 [Vitamin B1 (thiamin), thiamin] | 0.12-1,000 mg | 0.12-1000^ mg | 100 mg | 100 |  |
| Vitamin K | 12-1,000 mcg |  |  |  | Upper Limits, CRN-listed Nutrients (in vivo): 10 mg |
| [B] [Boron] | 0.2 to 11.6 mg |  |  |  | Upper Limits, CRN-listed Nutrients (in vivo): 6 mg |
| [Mg+2] [Magnesium] | 42-1,200 mg | 42 to 1200 mg | 400 mg | 400 |  |
| O=C(O)c1cccnc1 [Nicotinic Acid] | 1.6-3,000 mg |  | 250 mg |  |  |
| [Mo] [Molybdenum] | 0.0045 to 0.467 mg |  |  |  | Upper Limits, CRN-listed Nutrients (in vivo): 0.35 mg |
| CC1=C(/C=C/C(C)=C/C=C/C(C)=C/C=C/C=C(C)/C=C/C=C(C)/C=C/C2=C(C)C[C@@H](O)CC2(C)C)C(C)(C)C[C@H](O)C1 [Zeaxanthin] | 0.01 to 10 mg |  |  |  | Upper Limits, Other Nutrients (in vivo): 10 mg |
